The source of these data is patent US8293731B2, “HIV integrase inhibitors” (Merck Sharp + Dohme Corp., priority 2005, dated 2012).

This test has as its system HIV. In words: Assay for inhibition of HIV replication (spread assay): acute HIV infection of T-lymphoid cells. In kind it is cell-based. Particulars: Human immunodeficiency virus 1, 'less than about'. The method, then: Assays for the inhibition of acute HIV infection of T-lymphoid cells were conducted in accordance with Vacca, J. P. et al., Proc. Natl. Acad. Set USA 1994, 91: 4096. […] For example, the compounds of Examples 1 to 64 were tested in this assay and found to have IC95 values of less than about 10 micromolar.
As usually defined, the IC95 is the point of the concentration-response curve where the effect stands at 95%. A low value points to greater potency. On to `CN1CC(C)(C)CCn2c(c3c(c(O)c2=O)C(=O)N(Cc2ccc(F)c(Cl)c2)CC3)C1=O` [Example 45, 11-(3-Chloro-4-fluorobenzyl)-9-hydroxy-2,4,4-trimethyl-3,4,5,6,12,13-hexahydro-2H[1,4]diazocino[2,1-a]-2,6-naphthyridine-1,8,10(11H)trione], for which the IC95 is under 10 µM. For the molecule `CC1CCCN(CCN2CCOCC2)C(=O)c2c3c(c(O)c(=O)n21)C(=O)N(Cc1ccc(F)c(Cl)c1)CC3` (stereo not drawn) [Example 32, 11-(3-Chloro-4-fluorobenzyl)-9-hydroxy-2-(2-morpholin-4-ylethyl)-6-methyl-3,4,5,6,12,13-hexahydro-2H[1,4]diazocino[2,1-a]-2,6-naphthyridine-1,8,10(11H)-trione], the IC95 was under 10 µM. Consider `CC1CCCN(CCn2ccnc2)C(=O)c2c3c(c(O)c(=O)n21)C(=O)N(Cc1ccc(F)c(Cl)c1)CC3` (stereo not drawn) [Example 36, 11-(3-Chloro-4-fluorobenzyl)-9-hydroxy-2-[2-(1H-imidazol-1-yl)ethyl]-6-methyl-3,4,5,6,12,13-hexahydro-2H[1,4]diazocino[2,1-a]-2,6-naphthyridine-1,8,10(11H)-trione], for which the IC95 was under 10 µM.

Regarding `CC1CCCN(CCN2CCCCC2)C(=O)c2c3c(c(O)c(=O)n21)C(=O)N(Cc1ccc(F)c(Cl)c1)CC3` (stereo not drawn) [Example 33, 11-(3-Chloro-4-fluorobenzyl)-9-hydroxy-2-(2-piperidinyl-1-ylethyl)-6-methyl-3,4,5,6,12,13-hexahydro-2H[1,4]diazocino[2,1-a]-2,6-naphthyridine-1,8,10(11H)-trione], the IC95 was under 10 µM.

The molecule `O=C1OCCn2c1c1c(c(O)c2=O)C(=O)N(Cc2ccc(F)c(Cl)c2)CC1` [Example 7, 9-(3-Chloro-4-fluorobenzyl)-7-hydroxy-3,4,10,11-tetrahydro[1,4]oxazino[3,4-a]-2,6-naphthyridine-1,6,8(9H)-trione] gave an IC95 of under 10 µM.

With `CN1CC(O)C(C)(C)Cn2c(c3c(c(O)c2=O)C(=O)N(Cc2ccc(F)c(Cl)c2)CC3)C1=O` (racemic) [Example 40, (4R/S)-11-(3-Chloro-4-fluorobenzyl)-4,9-dihydroxy-2,5,5-trimethyl-3,4,5,6,12,13-hexahydro-2H[1,4]diazocino[2,1-a]-2,6-naphthyridine-1,8,10(11H)-trione], the IC95 is under 10 µM. In turn, `CC(=O)OCCCCN1C(=O)C(C)(C)n2c1c1c(c(O)c2=O)C(=O)N(Cc2ccc(F)c(Cl)c2)CC1` [Example 59, 8-(3-Chloro-4-fluorobenzyl)-6-hydroxy-1-(4-acetyloxybutyl)-3,3-dimethyl-1,8,9,10-tetrahydroimidazo[2,1-a]-2,6-naphthyridine-2,5,7(3H)-trione] gave a 95% effect concentration (IC95) of under 10 µM. The molecule `CNC(=O)CN1C(=O)C(C)(C)n2c1c1c(c(O)c2=O)C(=O)N(Cc2ccc(F)c(Cl)c2)CC1` [Example 52, 2-[8-(3-Chloro-4-fluorobenzyl)-6-hydroxy-3,3-dimethyl-2,5,7-trioxo-2,3,7,8,9,10-hexahydroimidazo[2,1-a]-2,6-naphthyridin-1(5H)-yl]-N-methylacetamide] displayed an IC95 of under 10 µM.

The molecule `CN1CC(=O)CCn2c(c3c(c(O)c2=O)C(=O)N(Cc2ccc(F)c(Cl)c2)CC3)C1=O` [Example 25, 11-(3-Chloro-4-fluorobenzyl)-9-hydroxy-2-methyl-5,6,12,13-tetrahydro-2H[1,4]diazocino[2,1-a]-2,6-naphthyridine-1,4,8,10(3H, 11H)-tetrone] displayed an IC95 of under 10 µM.

Consider `O=C1OC(CO)Cn2c1c1c(c(O)c2=O)C(=O)N(Cc2ccc(F)c(Cl)c2)CC1` (stereo not drawn) [Example 64, 9-(3-Chloro-4-fluorobenzyl)-7-hydroxy-3-(hydroxymethyl)-3,4,10,11-tetrahydro[1,4]oxazino[3,4-a]-2,6-naphthyridine-1,6,8(9H)trione], for which the IC95 was under 10 µM. The same measure for `COCCN1CCCCn2c(c3c(c(O)c2=O)C(=O)N(Cc2ccc(F)c(Cl)c2)CC3)C1=O` [Example 22, 11-(3-Chloro-4-fluorobenzyl)-9-hydroxy-2-[2-(methoxy)ethyl]-3,4,5,6,12,13-hexahydro-2H[1,4]diazocino[2,1-a]-2,6-naphthyridine-1,8,10(11H)-trione]: under 10 µM. Consider `CN1CCCn2c(c3c(c(O)c2=O)C(=O)N(Cc2ccc(F)c(Cl)c2)CC3)C1=O` [Example 3, 10-(3-Chloro-4-fluorobenzyl)-8-hydroxy-2-methyl-2,3,4,5,11,12-hexahydro[1,4]diazepino[2,1-a]-2,6-naphthyridine-1,7,9(10H)-trione], for which the IC95 is under 10 µM. The same measure for `O=C1c2c(c3n(c(=O)c2O)CCCCN(CCN2CCOCC2)C3=O)CCN1Cc1ccc(F)c(Cl)c1` [Example 16, 11-(3-Chloro-4-fluorobenzyl)-9-hydroxy-2-(2-morpholin-4-ylethyl)-3,4,5,6,12,13-hexahydro-2H[1,4]diazocino[2,1a]-2,6-naphthyridine-1,8,10(11H)-trione]: under 10 µM; for `CN1CCC[C@H](CO)n2c(c3c(c(O)c2=O)C(=O)N(Cc2ccc(F)c(Cl)c2)CC3)C1=O` [Example 47, (6R)-11-(3-Chloro-4-fluorobenzyl)-9-hydroxy-6-(hydroxymethyl)-2-methyl-3,4,5,6,12,13-hexahydro-2H-[1,4]diazocino[2,1-a]-2,6-naphthyridine-1,8,10(11H)-trione]: under 10 µM; for `CN1CC(O)CCn2c(c3c(c(O)c2=O)C(=O)N(Cc2ccc(F)c(Cl)c2)CC3)C1=O` (single isomer, unassigned) [Example 23, 11-(3-Chloro-4-fluorobenzyl)-4,9-dihydroxy-2-methyl-3,4,5,6,12,13-hexahydro-2H[1,4]diazocino[2,1-a]-2,6-naphthyridine-1,8,10(11H)-trione]: under 10 µM.

Consider `CC1CCCN(C)C(=O)c2c3c(c(O)c(=O)n21)C(=O)N(Cc1ccc(F)c(Cl)c1)CC3` (stereo not drawn) [Example 28, 11-(3-Chloro-4-fluorobenzyl)-9-hydroxy-2,6-dimethyl-3,4,5,6,12,13-hexahydro-2H[1,4]diazocino[2,1-a]2,6-naphthyridine-1,8,10(11H)-trione], for which the IC95 is under 10 µM. For `NCCN1CCCCn2c(c3c(c(O)c2=O)C(=O)N(Cc2ccc(F)c(Cl)c2)CC3)C1=O` [Example 19, 11-(3-Chloro-4-fluorobenzyl)-9-hydroxy-2-(2-aminoethyl)-3,4,5,6,12,13-hexahydro-2H[1,4]diazocino[2,1-a]-2,6-naphthyridine-1,8,10(11H)-trione], the IC95 is under 10 µM. Consider `CC(=O)NCCN1CCCCn2c(c3c(c(O)c2=O)C(=O)N(Cc2ccc(F)c(Cl)c2)CC3)C1=O` [Example 20, 11-(3-Chloro-4-fluorobenzyl)-9-hydroxy-2-[2-(acetylamino)ethyl]-3,4,5,6,12,13-hexahydro-2H[1,4]diazocino[2,1-a]-2,6-naphthyridine-1,8,10(11H)-trione], for which the IC95 is under 10 µM. `CC1(CCO)C(=O)N(CCO)c2c3c(c(O)c(=O)n21)C(=O)N(Cc1ccc(F)c(Cl)c1)CC3` (stereo not drawn) [Example 60, 8-(3-Chloro-4-fluorobenzyl)-6-hydroxy-1,3-bis(2-hydroxyethyl)-3-methyl-1,8,9,10-tetrahydroimidazo[2,1-a]-2,6-naphthyridine-2,5,7(3H)-trione] displayed an IC95 of under 10 µM.

The molecule `CS(=O)(=O)NCCN1CCCCn2c(c3c(c(O)c2=O)C(=O)N(Cc2ccc(F)c(Cl)c2)CC3)C1=O` [Example 21, 11-(3-Chloro-4-fluorobenzyl)-9-hydroxy-2-[2-(methamesulfonylamino)ethyl]-3,4,5,6,12,13-hexahydro-2H[1,4]diazocino[2,1-a]-2,6-naphthyridine-1,8,10(11H)-trione] displayed an IC95 of under 10 µM.

`CN(C)C(=O)CN1CCCCn2c(c3c(c(O)c2=O)C(=O)N(Cc2ccc(F)c(Cl)c2)CC3)C1=O` [Example 13, 2-[11-(3-Chloro-4-fluorobenzyl)-9-hydroxy-1,8,10-trioxo-1,3,4,5,6,8,10,11,12,13-deca-hydro-2H-[1,4]diazocino[2,1-a]-2,6-naphthyridin-2-yl]-N,N-dimethylacetamide] returned an IC95 of under 10 µM.

Take `CC(=O)OCC1Cn2c(c3c(c(O)c2=O)C(=O)N(Cc2ccc(F)c(Cl)c2)CC3)C(=O)O1` (stereo not drawn) [Example 63, 9-(3-Chloro-4-fluorobenzyl)-7-hydroxy-3-(acetyloxymethyl)-3,4,10,11-tetrahydro[1,4]oxazino[3,4-a]-2,6-naphthyridine-1,6,8(9H)-trione]: the IC95 is under 10 µM. Consider `CN1CCC[C@H](CO)n2c(c3c(c(O)c2=O)C(=O)N(Cc2ccc(F)cc2)CC3)C1=O` [Example 48, (6R) 11-(4-Fluorobenzyl)-9-hydroxy-6-(hydroxymethyl)-2-methyl-3,4,5,6,12,13-hexahydro-2H-[1,4]diazocino[2,1-a]2,6-naphthyridine-1,8,10(11H)-trione], for which the IC95 was under 10 µM. `CN1CCC(O)Cn2c(c3c(c(O)c2=O)C(=O)N(Cc2ccc(F)c(Cl)c2)CC3)C1=O` (stereo not drawn) [Example 37, 11(3-Chloro-4-fluorobenzyl)-5,9-dihydroxy-2-methyl-3,4,5,6,12,13-hexahydro-2H[1,4]diazocino[2,1-a]-2,6-naphthyridine-1,8,10(11H)-trione] gave an IC95 of under 10 µM. The molecule `CN1CCCCn2c(c3c(c(O)c2=O)C(=O)N(Cc2ccc(F)cc2)CC3)C1=O` [Example 2, 11-(4-Fluorobenzyl)-9-hydroxy-2-methyl-3,4,5,6,12,13-hexahydro-2H[1,4]diazocino[2,1-a]-2,6-naphthyridine-1,8,10(11H)-trione] yielded an IC95 of under 10 µM. For `O=C1OCCCn2c1c1c(c(O)c2=O)C(=O)N(Cc2ccc(F)c(Cl)c2)CC1` [Example 62, 10-(3-Chloro-4-fluorobenzyl)-8-hydroxy-4,5,11,12-tetrahydro-3H-[1,4]oxazepino[3,4-a]-2,6-naphthyridine-1,7,9(10H)-trione], the IC95 was under 10 µM. As for `O=C1c2c(c3n(c(=O)c2O)CCCCN(CCN2CCCCC2)C3=O)CCN1Cc1ccc(F)c(Cl)c1` [Example 18, 11-(3-Chloro-4-fluorobenzyl)-9-hydroxy-2-(2-piperidinyl-1-ylethyl)-3,4,5,6,12,13-hexahydro-2H[1,4]diazocino[2,1-a]-2,6-naphthyridine-1,8,10(11H)-trione], the IC95 was under 10 µM.
